Target: T1, Tt Pah2 (WT, residues 1-321) (Tetrahymena thermophila, UniProt I7MFJ3)
T1 construct: gene TTHERM_00215970; residues 1-321, codon-optimised, N-terminal His-tag (pET28) kept, E. coli BL21(DE3) RIPL
T1 sequence (I7MFJ3 1-321): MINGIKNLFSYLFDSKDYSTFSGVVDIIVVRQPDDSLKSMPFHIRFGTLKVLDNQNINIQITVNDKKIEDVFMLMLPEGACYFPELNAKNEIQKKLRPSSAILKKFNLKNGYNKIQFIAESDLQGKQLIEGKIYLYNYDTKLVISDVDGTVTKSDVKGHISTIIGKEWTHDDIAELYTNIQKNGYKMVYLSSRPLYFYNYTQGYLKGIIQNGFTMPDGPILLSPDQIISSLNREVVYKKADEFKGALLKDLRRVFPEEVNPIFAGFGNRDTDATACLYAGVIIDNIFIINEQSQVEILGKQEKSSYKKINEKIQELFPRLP
Assay: absorbance at […] nm (p-nitrophenol release)
Assay type: biochemical
Details: Mg2+, pH 8, ambient temperature, 56 μM enzyme; very slow turnover

`O=[N+]([O-])c1ccc(OP(=O)(O)O)cc1` [pNPP] was tested, and the “absorbance at 405 nm (p-nitrophenol release)” value was “we were able to observe detectable pNPP hydrolysis, albeit at a low rate”.

— paper PMC12657724, “Structures of a lipin/Pah phosphatidic acid phosphatase in distinct catalytic states reveal a signature motif for substrate recognition” (The Journal of Biological Chemistry, 2025)
